No end group written: not given here.
Key:
[1] = test system: MSMO1 [SEQ ID NO: 3]; experiment: Gene Modulation Assay, MSMO1 expression (qPCR); type: cell-based
Experimental: (§1) This method provides a way to measure the ability of a compound or material to modulate the expression of a target gene such as PPARA [SEQ ID NO: 2] or MSMO1 [SEQ ID NO: 3]. • Cells: tert keratinocytes (tKC)
(§2) BJ Fibroblasts • Plating: Cells are plated the day before treatment. • For tert keratinocytes: 100,000 cells/well in 2 ml volume of medium/well for 12-well plates (e.g., Collagen I coated plates, Corning cat #356500), or 50,000 cells/well in 1 ml volume of medium/well for 24-well plates. • For BJ fibroblasts: 88,000 cells/well in 2 ml volume of medium/well for 12-well plates (e.g., Corning cat #3512), or 44,000 cells/well in 1 ml volume of medium/well for 24-well plates. • Medium: For tert keratinocytes: EpiLife (e.g., Thermo Fisher Scientific cat #MEPI500CA+HKGS (e.g., Thermo Fisher Scientific cat #S-001-5). • For BJ Fibroblasts: EMEM (e.g., ATCC cat #30-2003)+10% FBS (e.g., HyClone cat #SH30071.02).
(§3) Treatments are made in media and aliquoted to dose plates. When it is time to treat cells, all plates of cells are removed from the incubator at the same time. Working with one plate at a time, media is removed and treatment is added, as follows: • Media is decanted from plate of cells. • Inverted plate is blotted briefly on paper towels. • Lid is put back onto plate and plate is moved into biosafety cabinet. • Treatments are transferred from dose plate to plate of cells, one column at a time, using a multichannel pipette. Once all plates have been treated, they are moved into incubator at 37° C., with 5% CO2 and 90% humidity. About 15-30 min before the end of the treatment period, cells from representative wells of each treatment are observed via microscope, then plates are returned to the incubator. When treatment time is complete, all plates are removed from incubator. Media is decanted from each plate, and plates are blotted on paper towels. 350 ul Qiagen Buffer RLT is added to each well to lyse cells, and lysates are transferred to 2 ml Eppendorf tubes and stored at −20° C. until ready for genomics.
(§4) Cell lysates are thawed at 4° C. and then isolated using the Biomek FxP and the RNAdvance Tissue Isolation kit (Beckman Coulter, p/n A32646). The resulting RNA is quantified using the Nandrop 8000 (Nanodrop, ND-8000). cDNA is generated using 500 ng of Total RNA and Applied Biosystems High Capacity cDNA with Reverse Transcription kit (Applied Biosystems p/n 4368814). cDNA, assays, and dilutions of PrimeTime GeneExpression MasterMix (IDT, p/n ? ) are plated onto a Wafergen MyDesign SmartChip (TakaraBio, p/n 640036) using the Wafergen Nanodispenser. The chip is then loaded into the SmartChip cycler and qPCR performed using the following PCR conditions:
(§5) Hold stage: 50° C. for 2 minutes (warm up), then 95° C. for 10 minutes.
(§6) PCR stage (40 cycles): 95° C. for 15 seconds, then 60° C. for 1 minute. Export data in .txt file format for analysis.
(§7) Test compositions and control compositions were prepared as described above in the Gene Modulation Assay and tested accordingly. The pal-KT used in this example is PALESTRINA brand pal-KT from Sederma (France), and the ac-PPYL is SYNIORAGE brand tetrapeptide from BASF Care Creations (New Jersey). P+A refers to the combination of pal-KT (P), and ac-PPYL (A) [SEQ ID NO: 1].
(§8) Synergy Factor is calculated as: […]
(§9) A synergy factor greater than 1.00 with p-value ≤0.05 indicates a statistically significant synergistic effect. Preferred synergy factors are 1.3 or greater.
(§10) In this test, the amino acids from pal-KT were rearranged to form a new dipeptide, pal-TK. Test compositions and control compositions were prepared as described above in the Gene Modulation Assay and tested accordingly. Fold change factor is calculated as.
(§11) [formula] A fold change factor of greater than 1 is desired, and a fold change factor of 1.3 or greater is preferred.

[2] = test system: PPARA [SEQ ID NO: 2]; experiment: Gene Modulation Assay, PPARA expression (qPCR); type: cell-based
Experimental: as §1, §2, §3, §4, §5, §6, §7, §8, §9, §10, §11

[3] = pal-KT + ac-PPYL relative to pal-TK + ac-PPYL, all peptides at 1 ppm

Row | Substance | Fold change vs. control, Ac-PPYL ([1]; Ac-PPYL 0.0135 ppm alone) | Fold change vs. control, Ac-PPYL ([1]; Ac-PPYL 1 ppm alone) | Fold change vs. control, Ac-PPYL ([1]; Ac-PPYL 13.5 ppm alone) | Fold change vs. control, Ac-PPYL ([1]; Ac-PPYL 40.5 ppm alone) | Fold change vs. control, Ac-PPYL ([2]; Ac-PPYL 0.0135 ppm alone) | Fold change vs. control, Ac-PPYL ([2]; Ac-PPYL 1 ppm alone) | Fold change vs. control, Ac-PPYL ([2]; Ac-PPYL 13.5 ppm alone) | Fold change vs. control, Ac-PPYL ([2]; Ac-PPYL 40.5 ppm alone) | Fold change vs. control, Pal-KT ([1]; Pal-KT 1 ppm alone) | Fold change vs. control, Pal-KT ([1]; Pal-KT 7.5 ppm alone) | Fold change vs. control, Pal-KT ([1]; Pal-KT 15 ppm alone) | Fold change factor [1, 3] | Fold change vs. control, Pal-KT ([2]; Pal-KT 1 ppm alone) | Fold change vs. control, Pal-KT ([2]; Pal-KT 7.5 ppm alone) | Fold change vs. control, Pal-KT ([2]; Pal-KT 15 ppm alone) | Fold change factor [2, 3]
1 | acetyl tetrapeptide-11 (Ac-PPYL) [acetylated tetrapeptide ac-PPYL, available as SYNIORAGE from BASF Care Creations] | 0.377 | 0.496 | 0.510 | 0.560 | 0.70 | 0.69 | 0.67 | 0.71 |  |  |  |  |  |  |  | 
2 | palmitoyl dipeptide-7 [Pal-KT] |  |  |  |  |  |  |  |  | 4.32 | 4.69 | 5.63 | greater than 1.3 | 1.26 | 1.43 | 1.59 | greater than 1.3
